Experimental data published in a melting point compilation (Tetko et al.; mined from patent text by program, amines drawn as free bases though some values may be those of a salt).

melting point [°C]	SMILES
148 to 150	CCCCC(=O)OCC(=O)C1(OC(C)=O)CCC2C3CC(C)C4=CC(=O)C=CC4(C)C3C(O)CC21C (stereo not given)
90 to 100	Cc1ccc(-c2ccc(O)cc2)c(-c2ccc(OCCN3CCCCC3)cc2)n1
158 to 160	Cc1ccc(C(=O)NCC(O)CO)cc1-n1c(C)cc(OCc2ccccc2CNC(=O)Nc2cc(C(C)(C)C)nn2-c2cccc(OCCO)c2)c(Cl)c1=O (stereo not given)
214 to 216	COc1ccc(Nc2ncccc2NS(=O)(=O)c2ccc(O)cc2)cc1
197 to 198	CC(C)(COC(=O)COc1ccc(C(=O)CN2Cc3cc(C(N)=S)ccc3C2=O)cc1)NS(=O)(=O)c1cccnc1
89 to 90	Nc1ccc2c(c1)C(C(=O)Oc1ccccc1)CCC2 (stereo not given)
118 to 120	CC(=O)NCCC(C)c1ccc(-c2ccc(Cl)cc2)cc1 (stereo not given)
252 to 254	Cc1c(Cl)cccc1NC(=O)NCc1ccc2c(c1)CN(C1CCC(=O)NC1=O)C2=O (stereo not given)
175 to 177	O=C(O)c1cnn2c1NCC=C2c1cccc(C(F)(F)F)c1
276	CC(=O)Nc1nc(CCc2ccc(NC(NC(=O)OC(C)(C)C)NC(=O)OC(C)(C)C)cc2)cs1
219 to 220	NC(=O)c1cccc(-n2c(=O)n(Cc3cccnc3)c(=O)c3cccnc32)c1
162	OCC1OC(c2ccc(F)c(Cc3ccc(-c4nccs4)s3)c2)C(O)C(O)C1O (stereo not given)
193 to 195	O=C(NC1CC1)c1ccc(-c2ccc3nnn(Cc4ccc5ncccc5c4)c3n2)cc1F
332 to 334	Cn1cc(C2=C(c3c4n(c5ccccc35)CCC(CNC=O)C4)C(=O)NC2=O)c2ccccc21 (stereo not given)
164 to 165	CCOC(=O)c1cn(-c2cccc(O)c2)cn1
82 to 84	CCOC(=O)CCCn1c(NC(=O)c2cccs2)nc2cc(C(=O)N(C)C3CCCCC3)ccc21
143 to 144	CC(=O)c1ccc(S(=O)(=O)NCc2cccnc2)cc1
185 to 187	CC(C)(C)c1cc(C(=O)NCCOC(=O)c2cc(C(C)(C)C)c(O)c(C(C)(C)C)c2)cc(C(C)(C)C)c1O
238 to 239	CC1(C)CC(=O)C2=C(C1)NC1=C(C(=O)CC(C)(C)C1)C2c1cccc(Oc2ccc(Cl)cc2)c1
176 to 179	O=C(O)c1cc([N+](=O)[O-])ccc1C(=O)c1ccccc1
140 to 143	CCCOc1c(OC)cc(NC(C)CCCN2C(=O)c3ccccc3C2=O)c2ncccc12 (stereo not given)
> 375	NC(=O)c1nc(-c2cccc(O)c2)nc2c1[nH]c(=O)n2-c1cccc(F)c1
244 to 245	COc1ccccc1-n1c(=O)[nH]c2c(C(N)=O)nc(-c3ccc4[nH]c(SC)nc4c3)nc21
164 to 165	COc1ccc2c(c1)OCC21C(=O)N(Cc2cccnc2)c2ccccc21 (stereo not given)
168 to 169	COC(=O)c1ccccc1NC(=O)CN1CCN(C(=O)c2ccc(OC)cc2)CC1
155 to 157	CN(C(=N)N)c1nccc(Oc2ccc(NC(=O)c3cc(F)cc(N4CCOCC4)c3)c3ccccc23)n1

melting point [°C]	SMILES
106 to 109	Cc1c(-c2ccc(C(F)(F)F)cc2)n(Cc2ccc(OCCBr)cc2)c2ccc(OCc3ccccc3)cc12
100	COC(=O)CCCSc1c2c(=O)n(C)c(=O)n(CC(C)C)c2nn1Cc1cccc2ccccc12
184 to 186	CC(=O)c1ccc(Oc2ncccc2C(=O)O)cc1
169 to 170	CCCc1nc2c(C)cccc2n1Cc1ccc(-c2ccccc2-c2nnn[nH]2)nc1
63 to 65	CCCc1c(OCCCSc2cccc(CC(=O)O)c2F)ccc(C(C)=O)c1O
113	CN(CCN)C(=O)N1N=C2c3cc(F)ccc3OC[C@@H]2[C@@H]1c1ccccc1 (racemic)
183 to 185	Cc1ncn(-c2ccc(CNC(=O)c3nc4n(c(=O)c3OCc3ccccc3)CCOC4(C)C)c(F)c2)n1
172 to 173	O=C(Nc1cccnn1)N1CCN(c2cncc(-c3ccc(F)cc3F)c2)CC1
79 to 81	O=CCOc1ccc(Oc2ccccc2)cc1
135 to 136	O=C(CN1CC(c2ccc(Cl)cc2)CC1=O)Oc1c(Cl)c(Cl)c(Cl)c(Cl)c1Cl (stereo not given)
160 to 161	COCc1cnc2c(NC(=O)c3c(Cl)cccc3Cl)cccc2c1COC
148 to 149	COc1cc(OC)nc(Oc2ccc3[nH]c(C)c(C=O)c3c2C(=O)OCc2ccccc2)n1
237	COc1cccc(Cn2c(C(=O)O)c(-c3ccc(C(=O)NC4CC4)cc3)c3ccccc32)c1
60 to 62	CCCCOC(=O)c1nc(Cl)c2cc(OC(C)C)ccc2c1O
183	CCOC(=O)C(F)(F)c1ccc(NC(=O)c2ccc3c(c2)C(C)(C)CCC3(C)C)cc1
128 to 131	CC=C1c2ccccc2CC(=NO)c2ccccc21
195 to 197	COc1cc(C(=O)c2[nH]c3ccccc3c2C)cc([N+](=O)[O-])c1O
192 to 195	CNS(=O)(=O)c1ccccc1Nc1nc(Nc2ccc3c(c2)CCCC(=O)N3CC(=O)O)ncc1Cl
157	CC(C)(Cc1cc2cc(OCc3ccc4occc4n3)ccc2n1Cc1ccc(Cl)cc1)C(=O)O
46 to 48	CC(C)(Cc1cccc(C(=O)c2cccc(CC(C)(C)C(=O)O)c2)c1)C(=O)O
157 to 158	COC(=O)c1cc(OC)cc(-c2ccc(N(C)C)cc2)n1
280 to 285	COC(=O)[C@@H]1Cc2cc(OC)c(O)cc2C(=O)N1
216 to 217	COc1cc(C(=O)O)ccc1Cc1nn(C)c2ccc(NC(=O)OC3CCCC3)cc12
100	CN(C)CCNc1cc(CNc2ccccc2C(=O)Nc2cccc(C(F)(F)F)c2)ccn1
> 250	CCOC(=O)CC[C@H](NC(=O)c1ccc(C#Cc2cnc3nc(NC(=O)C(C)(C)C)nc(O)c3c2)cc1)C(=O)OCC

Continued, compound first:

SMILES	melting point [°C]
O=S(=O)(Cc1ccccc1Cl)c1nnc(C(F)(F)F)s1	103
CN(CC1CCN(CC2COc3ccccc3O2)CC1)c1nc2ccccc2s1 (stereo not given)	125
Cc1cnc2nc(C(F)(F)F)n(C)c2c1	100
CCC(CC)c1nnc(S)n(N)c1=O	162 to 164
Cc1ccc(C2=CCC(=O)CC2)cc1	72 to 74
Cn1ccnc1COc1cc(Cl)ncn1	126 to 128
CC(C)n1c(C=CC=O)c(-c2ccc(F)cc2)c(-c2ccc(F)cc2)c1C=CC=O	207
O=P(O)(O)Cc1ccccc1-c1ccccc1	168 to 169
CON=Cc1nc(C)n2c1CN=C(c1ccccc1)c1cc(Cl)ccc1-2	193 to 195
CC(C)(C)OC(=O)N1OC2C=CC1C2 (stereo not given)	52 to 53
CCCCC1(CCCC)NC(=O)c2ccccc2N1C	77 to 78
Cc1ncn(-c2cc(C(Cl)(Cl)Cl)c3cc(C(Cl)(Cl)Cl)ccc3n2)n1	169 to 170
O=C1C=C/C(=C/c2ccc(C(F)(F)F)cc2)O1	92 to 94
CCCCCn1ncc(C#N)c1N	143 to 144
CNC(=NC#N)NCc1c(C)cc(C)c(CNC(=NC#N)NC)c1C	270 to 272
COc1ccc(C(Cl)C(C)(C)[N+](=O)[O-])cc1OC (stereo not given)	109 to 110
Fc1ccc2scc(Br)c2c1	79 to 80
O=c1[nH]c(=S)[nH]c2c1cnn2CC(O)c1ccccc1 (stereo not given)	264 to 265
COc1cc(Cl)nc(N(C=O)c2ccccc2)n1	118 to 120
CC(=O)OC1CSC(Oc2cncc(C#N)c2)C(OC(C)=O)C1OC(C)=O (stereo not given)	147
CC1(C)CC(=O)Nc2cc3nc(-c4cc5ccccc5[nH]4)[nH]c3cc21	264 to 267
CC1(O)CC2c3ccccc3CCN2C2CCCCC21 (stereo not given)	85 to 88
O=c1[nH]c(=O)n(CCCl)c2ccccc12	189 to 192
CC(=O)N(C)c1c(I)c(NC(=O)CCCCCCCC(=O)O)c(I)c(C(=O)O)c1I	205 to 208
O=C1Nc2ccc(Br)cc2C2(CCCCC2)O1	208 to 210

SMILES	melting point [°C]
COC(=O)C(C(C)C)S(=O)(=O)Nc1nc(OC)cc(OC)n1 (stereo not given)	94 to 95
COc1cc2c(c(OC)c1)OC(C(F)(F)F)C(C(=O)O)=C2 (stereo not given)	215 to 217
Cc1ccccc1N1CCN(CCn2c(=O)[nH]c3sccc3c2=O)CC1	191 to 193
Cc1cc(C#N)sc1-c1ccc2c(c1)C(C)(C)C(=O)N2	192 to 193
CC(=O)Nc1cscn1	176
Cc1nc(N2CCOCC2)ccc1N1CCCn2c1nc1c(Cl)ccc(C(OC(F)F)C(F)(F)F)c12 (stereo not given)	191 to 193
O=C(OCc1ccc([N+](=O)[O-])cc1)N1CCC(O)CC1	91.5 to 94
O=[N+]([O-])c1ccc(O)cc1Br	130 to 135
CN(C)CCOC(=O)CCc1c(C(=O)OCCN(C)C)[nH]c2cc(Cl)cc(Cl)c12	95 to 97
O=C1CCC(C(=O)c2ccc(Cl)cc2)N1 (stereo not given)	174
CCn1c(C=O)cnc1[N+](=O)[O-]	38 to 40
CC1(C)CC(N2CCCCCC2=O)CC(C)(C)N1	113 to 117
COC1C(=O)N=C(NC(=O)Nc2cccc(Cl)c2)N1C (stereo not given)	147 to 149
CCn1c(CO)nc(C(C)C)c1Sc1cc(C#N)cc(C#N)c1	167 to 169
O=S1CCNCc2c(Cl)cccc21 (stereo not given)	125 to 126
COc1ccccc1C(=O)C=CC(=O)O	146 to 148
O=S1(=O)NCN(C2CC2)c2c1ccc(F)c2F	160 to 162
Cn1ncc2c1=CC1=CC=C(N)C(=O)C=21	225 to 227
Cn1cc2c3c(c(F)cc2n1)CCC3=O	190 to 192
O=C1NCCN1C1CCN(CC(O)COc2cccnc2Cl)CC1 (stereo not given)	163 to 166
Cc1ccc([N+](=O)[O-])c(OC2CCOC2=O)c1 (stereo not given)	68 to 70
CCOCc1nc2c(N)nc(C)c(C)c2n1N(C)C	170 to 171
NC1=C(C(=O)c2ccc(Br)s2)C2=C(CCCC2)S1=O (stereo not given)	160 to 163
O=C(O)C(CC1CCCCC1)NC(=O)C(CS)C(F)(F)F (stereo not given)	116 to 118
